Laboratory results from EP2951180B1, “2,6,7,8 SUBSTITUTED PURINES AS HDM2 INHIBITORS” (Merck Sharp & Dohme Corp., priority 2013, dated 2014).

Each compound was assayed against T1, HDM2 (Homo sapiens, UniProt Q00987) (assay: HDM2 FRET assay (inhibition of binding of FITC labeled p53-pocket peptide to HDM2)). Details: Table 11; read-out: FRET IC50.
T1 construct: Thioredoxin (N); made in house; host or cells: E. coli strain BL21(DE3)Rosetta
T1 sequence (Q00987 17-125): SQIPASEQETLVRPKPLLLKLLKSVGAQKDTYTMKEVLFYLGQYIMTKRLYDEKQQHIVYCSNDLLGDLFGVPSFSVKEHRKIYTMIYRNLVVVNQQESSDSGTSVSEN
Procedure, shortened: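 Final: 0.5 nM His-HDM2, 3 nM FITC peptide, 0.25 nM Tb anti-His Ab; PBS, 0.01% BSA, 0.01% Tween-20; 0.1% DMSO.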
With `C[C@@H](Nc1nc(-c2noc(=O)[nH]2)nc2nc(N3CCOCC3c3ccc(Cl)cc3)n(C[C@H]3CC[C@H](C)CC3)c12)C1CCC1` (stereo partly drawn) [Example 11.99, 3-{8-[3-(4-chlorophenyl)morpholin-4-yl]-6-{[(1R)-1-cyclobutylethyl]amino}-7-[(trans-4-methylcyclohexyl)methyl]-7H-purin-2-yl}-1,2,4-oxadiazol-5(4H)-one] the IC50 was 3.43 nM. `C[C@@H](Nc1nc(-c2noc(=O)[nH]2)nc2nc(N3CCOCC3c3ccccc3Cl)n(C[C@H]3CC[C@H](C)CC3)c12)C1CCC1` (stereo partly drawn) [Example 11.100, 3-{8-[3-(2-chlorophenyl)morpholin-4-yl]-6-{[(1R)-1-cyclobutylethyl]amino}-7-[(trans-4-methylcyclohexyl)methyl]-7H-purin-2-yl}-1,2,4-oxadiazol-5(4H)-one] was tested, and the IC50 was 0.936 nM. Compound `C[C@@H](Nc1nc(-c2noc(=O)[nH]2)nc2nc(N3CCOC[C@H]3Cc3ccccc3)n(C[C@H]3CC[C@H](C)CC3)c12)C1CCC1` [Example 11.101, 3-{8-[(3R)-3-benzylmorpholin-4-yl]-6-{[(1R)-1-cyclobutylethyl]amino}-7-[(trans-4-methylcyclohexyl)methyl]-7H-purin-2-yl}-1,2,4-oxadiazol-5(4H)-one] has an IC50 of 16.2 nM. For `COC1(C)CN(c2nc3nc(-c4noc(=O)[nH]4)nc(N[C@H](C)C4CCC4)c3n2C[C@H]2CC[C@H](C)CC2)C1` [Example 11.102, 3-(6-{[(1R)-1-cyclobutylethyl]amino}-8-(3-methoxy-3-methylazetidin-1-yl)-7-[(trans-4-methylcyclohexyl)methyl]-7H-purin-2-yl)-1,2,4-oxadiazol-5(2H)-one], the IC50 was 20.8 nM. With `C[C@@H](Nc1nc(-c2noc(=O)[nH]2)nc2nc(N3CC(C)(O)C3)n(C[C@H]3CC[C@H](C)CC3)c12)C1CCC1` [Example 11.103, 3-(6-{[(1R)-1-cyclobutylethyl]amino}-8-(3-hydroxy-3-methylazetidin-1-yl)-7-[(trans-4-methylcyclohexyl)methyl]-7H-purin-2-yl)-1,2,4-oxadiazol-5(2H)-one] the IC50 was 36.2 nM. Compound `C[C@@H](Nc1nc(-c2noc(=O)[nH]2)nc2nc(N3CCOCC(F)(F)C3)n(C[C@H]3CC[C@H](C)CC3)c12)C1CCC1` [Example 11.104, 3-(6-{[(1R)-1-cyclobutylethyl]amino}-8-(6,6-difluoro-1,4-oxazepan-4-yl)-7-[(trans-4-methylcyclohexyl)methyl]-7H-purin-2-yl)-1,2,4-oxadiazol-5(2H)-one] has an IC50 of 9.24 nM. `C[C@@H](Nc1nc(-c2noc(=O)[nH]2)nc2nc(N3CCCOCC3)n(C[C@H]3CC[C@H](C)CC3)c12)C1CCC1` [Example 11.105, 3-[6-{[(1R)-1-cyclobutylethyl]amino}-7-[(trans-4-methylcyclohexyl)methyl]-8-(1,4-oxazepan-4-yl)-7H-purin-2-yl]-1,2,4-oxadiazol-5(2H)-one] showed an IC50 of 42.6 nM. `C[C@H](Nc1nc2nc(-c3noc(=O)[nH]3)nc(N[C@H](C)C3CCC3)c2n1C[C@H]1CC[C@H](C)CC1)c1cccc(F)c1` [Example 11.106, 3-(6-{[(1R)-1-cyclobutylethyl]amino}-8-{[(1S)-1-(3-fluorophenyl)ethyl]amino}-7-[(trans-4-methylcyclohexyl)methyl]-7H-purin-2-yl)-1,2,4-oxadiazol-5(2H)-one] was tested, and the IC50 was 3.22 nM. `COC(C)(C)C1CCCN1c1nc2nc(-c3noc(=O)[nH]3)nc(N[C@H](C)C3CCC3)c2n1C[C@H]1CC[C@H](C)CC1` (stereo partly drawn) [Example 11.107, 3-(6-{[(1R)-1-cyclobutylethyl]amino}-8-[2-(1-methoxy-1-methylethyl)pyrrolidin-1-yl]-7-[(trans-4-methylcyclohexyl)methyl]-7H-purin-2-yl)-1,2,4-oxadiazol-5(2H)-one] was tested, and the IC50 was 0.507 nM. With `Cc1nonc1C1CCCN1c1nc2nc(-c3noc(=O)[nH]3)nc(N[C@H](C)C3CCC3)c2n1C[C@H]1CC[C@H](C)CC1` (stereo partly drawn) [Example 11.108, 3-(6-{[(1R)-1-cyclobutylethyl]amino}-7-[(trans-4-methylcyclohexyl)methyl]-8-[2-(4-methyl-1,2,5-oxadiazol-3-yl)pyrrolidin-1-yl]-7H-purin-2-yl)-1,2,4-oxadiazol-5(2H)-one] the IC50 was 1.6 nM. In the case of `Cc1nn(C)cc1CNc1nc2nc(-c3noc(=O)[nH]3)nc(N[C@H](C)C3CCC3)c2n1C[C@H]1CC[C@H](C)CC1` [Example 11.109, 3-(6-{[(1R)-1-cyclobutylethyl]amin ο}-8-{[(1,3-dimethyl-1H-pyrazol-4-yl)methyl]amino} -7-[(trans-4-methylcyclohexyl)methyl]-7H-purin-2-yl)-1,2,4-oxadiazol-5(2H)-one], the IC50 is reported as 55.6 nM. Work on `C[C@@H](Nc1nc(-c2noc(=O)[nH]2)nc2nc(N3CCC[C@H]3c3nnnn3C)n(C[C@H]3CC[C@H](C)CC3)c12)C1CCC1` [Example 11.110, 3-(6-{[(1R)-1-cyclobutylethyl]amino}-7-[(trans-4-methylcyclohexyl)methyl]-8-[(2S)-2-(1-methyl-1H-tetrazol-5-yl)pyrrolidin-1-yl]-7H-purin-2-yl)-1,2,4-oxadiazol-5(2H)-one] yielded an IC50 of 6.76 nM. With `Cc1nonc1CNc1nc2nc(-c3noc(=O)[nH]3)nc(N[C@H](C)C3CCC3)c2n1C[C@H]1CC[C@H](C)CC1` [Example 11.111, 3-(6-{[(1R)-1-cyclobutylethyl]amino}-7-[(trans-4-methylcyclohexyl)methyl]-8-{[(4-methyl-1,2,5-oxadiazol-3-yl)methyl]amino}-7H-purin-2-yl)-1,2,4-oxadiazol-5(2H)-one] the IC50 was 6.34 nM. Work on `C[C@@H](Nc1nc(-c2noc(=O)[nH]2)nc2nc(NCc3c[nH]nc3-c3ccccc3)n(C[C@H]3CC[C@H](C)CC3)c12)C1CCC1` [Example 11.112, 3-(6-{[(1R)-1-cyclobutylethyl]amino}-7-[(trans-4-methylcyclohexyl)methyl]-8-{[(3-phenyl-1H-pyrazol-4-yl)methyl]amino}-7H-purin-2-yl)-1,2,4-oxadiazol-5(2H)-one] yielded an IC50 of 215 nM. With `C[C@@H](Nc1nc(-c2noc(=O)[nH]2)nc2nc(N3CCC(C)(O)C3)n(C[C@H]3CC[C@H](C)CC3)c12)C1CCC1` (stereo partly drawn) [Example 11.113, 3-(6-{[(1R)-1-cyclobutylethyl]amino}-8-(3-hydroxy-3-methylpyrrolidin-1-yl)-7-[(trans-4-methylcyclohexyl)methyl]-7H-purin-2-yl)-1,2,4-oxadiazol-5(2H)-one] the IC50 was 57.7 nM. With `COC1CCN(c2nc3nc(-c4noc(=O)[nH]4)nc(N[C@H](C)C4CCC4)c3n2C[C@H]2CC[C@H](C)CC2)C1` (stereo partly drawn) [Example 11.114, 3-(6-{[(1R)-1-cyclobutylethyl]amino}-8-(3-methoxypyrrolidin-1-yl)-7-[(trans-4-methylcyclohexyl)methyl]-7H-purin-2-yl)-1,2,4-oxadiazol-5(2H)-one] the IC50 was 52.9 nM. Work on `CCN(C)c1nc2nc(-c3noc(=O)[nH]3)nc(N[C@H](C)C3CCC3)c2n1C[C@H]1CC[C@H](C)CC1` [Example 11.115, 3-(6-{[(1R)-1-cyclobutylethyl]amino}-8-[ethyl(methyl)amino]-7-[(trans-4-methylcyclohexyl)methyl]-7H-purin-2-yl)-1,2,4-oxadiazol-5(2H)-one] yielded an IC50 of 8.13 nM. `COCCN(C)c1nc2nc(-c3noc(=O)[nH]3)nc(N[C@H](C)C3CCC3)c2n1C[C@H]1CC[C@H](C)CC1` [Example 11.116, 3-(6-{[(1R)-1-cyclobutylethyl]amino}-8-[(2-methoxyethyl)(methyl)amino]-7-[(trans-4-methylcyclohexyl)methyl]-7H-purin-2-yl)-1,2,4-oxadiazol-5(2H)-one] was tested, and the IC50 was 21 nM.
